Results on 13 molecules are retold here after the NIST ThermoML archive (doi:10.1021/je0500025).

For data set [1] the following is noted: 101 kPa, Liquid.
Data set [2] in a line: xn = mol fraction of the nth substance listed. The settings on record: 101 kPa, Liquid.

Counter-ions that a name gives are not always drawn. Numbers after ± are expanded uncertainties.

On to `CCC/C=C/COC(C)=O` [(E)-2-hexenyl acetate], for which the results for the mass density in data set [1] (293.15 K), in data set [1] (303.15 K) and in data set [1] (313.15 K) were 897.84 ± 3 kg/m3, 891.78 ± 3.1 kg/m3 and 884.35 ± 3.2 kg/m3, respectively. For the same molecule, the viscosity was 0.901 ± 0.029 mPa·s in data set [1] (293.15 K), 0.77 ± 0.025 mPa·s in data set [1] (303.15 K) and 0.666 ± 0.021 mPa·s in data set [1] (313.15 K).
Consider `CCC/C=C/COC(C)=O` [(E)-2-hexenyl acetate] + CCO, for which the mass density in data set [2] (293.15 K, x1 = 1) worked out at 897.84 ± 3 kg/m3; in data set [2] (303.15 K, x1 = 1), 891.78 ± 3.1 kg/m3; in data set [2] (313.15 K, x1 = 1), 884.35 ± 3.2 kg/m3. Moreover, the viscosity in data set [2] (293.15 K, x1 = 1) amounted to 0.901 ± 0.029 mPa·s; in data set [2] (303.15 K, x1 = 1), 0.77 ± 0.025 mPa·s; in data set [2] (313.15 K, x1 = 1), 0.666 ± 0.021 mPa·s.
As to `CC/C=C\CCOC(C)=O` [(Z)-3-hexenyl acetate], the mass density in data set [1] (293.15 K) is 900.82 ± 2.9 kg/m3; in data set [1] (303.15 K) it was 893.14 ± 3 kg/m3; in data set [1] (313.15 K), 886.19 ± 3.2 kg/m3. Also, the viscosity in data set [1] (293.15 K) was determined as 0.893 ± 0.028 mPa·s; in data set [1] (303.15 K), 0.763 ± 0.024 mPa·s; in data set [1] (313.15 K) it was 0.66 ± 0.021 mPa·s.
Take `CC/C=C\CCOC(C)=O` [(Z)-3-hexenyl acetate] + CCO: the mass density is 900.82 ± 2.9 kg/m3 in data set [2] (293.15 K, x1 = 1); 893.14 ± 3 kg/m3 in data set [2] (303.15 K, x1 = 1); 886.19 ± 3.2 kg/m3 in data set [2] (313.15 K, x1 = 1). Moreover, the viscosity turned out to be 0.893 ± 0.028 mPa·s in data set [2] (293.15 K, x1 = 1); 0.763 ± 0.024 mPa·s in data set [2] (303.15 K, x1 = 1); 0.66 ± 0.021 mPa·s in data set [2] (313.15 K, x1 = 1).
For `CC/C=C\CCOC=O` [(Z)-3-hexenyl formate], the mass density in data set [1] (293.15 K) stood at 909.15 ± 3 kg/m3; in data set [1] (303.15 K) it was 906.6 ± 3 kg/m3; in data set [1] (313.15 K), 903.17 ± 3.1 kg/m3. The viscosity in data set [1] (293.15 K) is given as 0.599 ± 0.021 mPa·s; in data set [1] (303.15 K), 0.527 ± 0.019 mPa·s; in data set [1] (313.15 K) it was 0.469 ± 0.017 mPa·s.
Turning to `CC/C=C\CCOC=O` [(Z)-3-hexenyl formate] + CCO, the mass density in data set [2] (293.15 K, x1 = 1) stood at 909.15 ± 3 kg/m3; in data set [2] (303.15 K, x1 = 1), 906.6 ± 3 kg/m3; in data set [2] (313.15 K, x1 = 1), 903.17 ± 3.1 kg/m3. The viscosity in data set [2] (293.15 K, x1 = 1) came out at 0.599 ± 0.021 mPa·s; in data set [2] (303.15 K, x1 = 1), 0.527 ± 0.019 mPa·s; in data set [2] (313.15 K, x1 = 1), 0.469 ± 0.017 mPa·s.
On to `CCCCOC(C)=O` [butyl ethanoate], for which the mass density in data set [1] (293.15 K) came out at 881.04 ± 3.2 kg/m3; in data set [1] (303.15 K), 871.3 ± 3.4 kg/m3; in data set [1] (313.15 K) it was 861.84 ± 3.5 kg/m3. Further, the viscosity was 0.732 ± 0.023 mPa·s in data set [1] (293.15 K), 0.628 ± 0.02 mPa·s in data set [1] (303.15 K) and 0.546 ± 0.018 mPa·s in data set [1] (313.15 K).
`CCCCOC(C)=O` [butyl ethanoate] + CCO: the mass density in data set [2] (293.15 K, x1 = 1) was found to be 881.04 ± 3.2 kg/m3; in data set [2] (303.15 K, x1 = 1), 871.3 ± 3.4 kg/m3; in data set [2] (313.15 K, x1 = 1), 861.84 ± 3.5 kg/m3. For the same molecule, the viscosity is 0.732 ± 0.023 mPa·s in data set [2] (293.15 K, x1 = 1); 0.628 ± 0.02 mPa·s in data set [2] (303.15 K, x1 = 1); 0.546 ± 0.018 mPa·s in data set [2] (313.15 K, x1 = 1).
As to `CCO` [ethanol], the mass density is reported as 788.24 ± 4.7 kg/m3 in data set [1] (293.15 K), 780.73 ± 4.8 kg/m3 in data set [1] (303.15 K) and 771.98 ± 5 kg/m3 in data set [1] (313.15 K). Also, the viscosity is 1.16 ± 0.037 mPa·s in data set [1] (293.15 K), 0.968 ± 0.031 mPa·s in data set [1] (303.15 K) and 0.81 ± 0.026 mPa·s in data set [1] (313.15 K).
For the molecule `CCO` [ethanol] + CC/C=C\CCOC(C)=O, the mass density in data set [2] (293.15 K, x2 = 0) is reported as 788.24 ± 4.7 kg/m3; in data set [2] (303.15 K, x2 = 0) it was 780.73 ± 4.8 kg/m3; in data set [2] (313.15 K, x2 = 0), 771.98 ± 5 kg/m3. Besides, the viscosity in data set [2] (293.15 K, x2 = 0) came to 1.16 ± 0.037 mPa·s; in data set [2] (303.15 K, x2 = 0), 0.968 ± 0.031 mPa·s; in data set [2] (313.15 K, x2 = 0), 0.81 ± 0.026 mPa·s.
Take `CCO` [ethanol] + CC/C=C\CCOC=O: the mass density in data set [2] (293.15 K, x2 = 0) was determined as 788.24 ± 4.7 kg/m3; in data set [2] (303.15 K, x2 = 0) it was 780.73 ± 4.8 kg/m3; in data set [2] (313.15 K, x2 = 0) it was 771.98 ± 5 kg/m3. In addition, the viscosity in data set [2] (293.15 K, x2 = 0) is 1.16 ± 0.037 mPa·s; in data set [2] (303.15 K, x2 = 0), 0.968 ± 0.031 mPa·s; in data set [2] (313.15 K, x2 = 0), 0.81 ± 0.026 mPa·s.
In the case of `CCO` [ethanol] + CCC/C=C/COC(C)=O, the mass density in data set [2] (293.15 K, x2 = 0) is 788.24 ± 4.7 kg/m3; in data set [2] (303.15 K, x2 = 0), 780.73 ± 4.8 kg/m3; in data set [2] (313.15 K, x2 = 0), 771.98 ± 5 kg/m3. Further, the viscosity in data set [2] (293.15 K, x2 = 0) turned out to be 1.16 ± 0.037 mPa·s; in data set [2] (303.15 K, x2 = 0), 0.968 ± 0.031 mPa·s; in data set [2] (313.15 K, x2 = 0), 0.81 ± 0.026 mPa·s.
On to `CCO` [ethanol] + CCCCOC(C)=O, for which the mass density in data set [2] (293.15 K, x2 = 0) is 788.24 ± 4.7 kg/m3; in data set [2] (303.15 K, x2 = 0), 780.73 ± 4.8 kg/m3; in data set [2] (313.15 K, x2 = 0), 771.98 ± 5 kg/m3. The viscosity in data set [2] (293.15 K, x2 = 0) came to 1.16 ± 0.037 mPa·s; in data set [2] (303.15 K, x2 = 0), 0.968 ± 0.031 mPa·s; in data set [2] (313.15 K, x2 = 0) it was 0.81 ± 0.026 mPa·s.
